Assays:
ob/ob mice = experiment: Example 1: two-week treatment of female ob/ob mice (40-70 g) at light onset; type: in vivo; conditions: single drug, two weeks at light onset
Experimental: Female ob/ob mice (40-70 g bw) were treated for two weeks with either 1) bromocriptine (11 mg/kg) at light onset, 2) SKF38393 (20 mg/kg) at light onset, 3) bromocriptine plus SKF38393 at light onset, or 4) vehicle at light onset.

C57BL/6 ob/ob mice = experiment: Example 2: two-week treatment of C57BL/6 ob/ob mice at 1 HALO; type: in vivo; conditions: for reduction of plasma free fatty acid level / reduction of plasma glucose concentration / reduction of plasma insulin level / reduction of plasma triglyceride level: mouse, in vivo; for Food Consumption / Plasma FFA / Plasma Glucose / Plasma Insulin / Plasma TG / Whole Body Lipid-Glycerol (% BW) / Whole Body Lipid-Glycerol (g) / Whole Body Protein (% BW) / Whole Body Protein (g) / Final Body Weight: ob/ob mice, two weeks; for Final Body Weight: sacrificed 24-26 hours after last treatment; for reducing body weight gain: single drug 10 mg/kg, two weeks at 1 HALO
Experimental: Different groups of 6-week old C57BL/6 ob/ob mice (lacking a functional leptin protein) were treated with either bromocriptine (“BC”) (10 mg/kg BW), SKF38393 (“SKF”) (10 mg/kg BW), both drugs, or vehicle for two weeks at 1 hour after light onset (HALO). Animals were held on 12-hour daily photoperiods and allowed to feed ad libitum. Food consumption was monitored daily for 3 days before the initiation of treatment throughout the 14-day treatment period. Animals were sacrificed between 1 and 3 HALO on the day following the final treatment (i.e., 24-26 hours after last injection) and plasma was collected for the analyses of insulin, glucose, and lipids while the carcasses were solubilized in ethanolic KOH and analyzed for protein and lipid content. Bromocriptine and SKF38393, individually, were ineffective in reducing body weight gain where as SKF, but not BC, reduced food consumption (19%, P<0.01). However, the combined treatment of bromocriptine and SKF38393 (BC/SKF) decreased food consumption by 46% (from 4.8±0.2 to 2.6±g/day; P<0.001) and body weight by 15% (from a 3.2 g increase in controls to a 4.3 g decrease; P<0.005) in 14 days of treatment (FIG. 16). Relative to controls, in absolute terms, the lipid content of the BC/SKF treated animals was decreased by 40% (from 4.2±0.2 to 2.5±0.3 g glycerol/animal; P<0.0003) whereas the protein content increased 8% (from 3.7±0.08 to 4.0±0.08 g/animal; P<0.05). […] This effect on body composition was observed by SKF (P<0.003) or BC (P<0.04) treatments alone, although to a lesser extent than by BC/SKF combination (P<0.05).

[1] = timed bromocriptine monotherapy, diastolic blood pressure; type: in vivo; conditions: humans, 4.8 mg/day at 8:00 AM
Excerpt: The benefits of the invention are not limited to modifying and regulating lipid and glucose metabolism. Other bodily functions, such as blood pressure, can be beneficially modified and regulated by timed administration of a D2 agonist (as monotherapy) in the dosage range disclosed above. […] Conjoined administration of a dopamine D1 agonist and […]

HMG-CoA reductase = molecular target: T1, HMG-CoA reductase (Homo sapiens, UniProt P04035); conditions: in vivo; cited from earlier work
T1 sequence (P04035 1-888): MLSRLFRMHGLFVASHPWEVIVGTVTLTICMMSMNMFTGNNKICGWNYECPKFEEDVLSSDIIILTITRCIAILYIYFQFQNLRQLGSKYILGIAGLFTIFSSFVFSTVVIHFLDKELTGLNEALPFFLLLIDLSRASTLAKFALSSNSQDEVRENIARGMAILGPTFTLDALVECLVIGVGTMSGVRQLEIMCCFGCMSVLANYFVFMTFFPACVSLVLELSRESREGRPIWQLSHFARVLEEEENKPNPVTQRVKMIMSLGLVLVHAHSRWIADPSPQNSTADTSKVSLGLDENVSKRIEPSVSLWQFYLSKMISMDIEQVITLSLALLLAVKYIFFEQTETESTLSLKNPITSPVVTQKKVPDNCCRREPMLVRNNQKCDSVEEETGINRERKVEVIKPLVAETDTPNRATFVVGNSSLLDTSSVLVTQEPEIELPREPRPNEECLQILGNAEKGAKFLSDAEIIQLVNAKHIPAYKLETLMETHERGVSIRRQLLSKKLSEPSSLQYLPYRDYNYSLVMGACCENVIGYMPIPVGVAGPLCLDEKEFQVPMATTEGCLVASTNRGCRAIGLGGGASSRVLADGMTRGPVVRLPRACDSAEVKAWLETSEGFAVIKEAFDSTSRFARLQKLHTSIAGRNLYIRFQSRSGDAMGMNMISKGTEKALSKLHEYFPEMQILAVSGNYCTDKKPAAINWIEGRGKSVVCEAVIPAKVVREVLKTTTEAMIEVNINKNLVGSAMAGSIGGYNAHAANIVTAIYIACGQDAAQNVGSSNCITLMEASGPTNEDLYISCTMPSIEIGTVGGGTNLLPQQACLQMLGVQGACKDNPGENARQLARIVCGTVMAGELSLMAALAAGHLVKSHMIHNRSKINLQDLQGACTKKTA

SMILES	reductions in hyperphagia, body weight gain, and obesity (ob/ob mice)	reduction of food consumption (C57BL/6 ob/ob mice; BC 10 mg/kg, SKF 10 mg/kg, 14 days)	reduction of plasma free fatty acid level (C57BL/6 ob/ob mice)	reduction of plasma glucose concentration (C57BL/6 ob/ob mice)	reduction of plasma insulin level (C57BL/6 ob/ob mice)	reduction of plasma triglyceride level (C57BL/6 ob/ob mice)	Food Consumption (C57BL/6 ob/ob mice)	Plasma FFA (C57BL/6 ob/ob mice)	Plasma Glucose (C57BL/6 ob/ob mice)	Plasma Insulin (C57BL/6 ob/ob mice)	Plasma TG (C57BL/6 ob/ob mice)	Whole Body Lipid-Glycerol (% BW) (C57BL/6 ob/ob mice)	Whole Body Lipid-Glycerol (g) (C57BL/6 ob/ob mice)	Whole Body Protein (% BW) (C57BL/6 ob/ob mice)	Whole Body Protein (g) (C57BL/6 ob/ob mice)	Final Body Weight (C57BL/6 ob/ob mice)	reducing body weight gain (C57BL/6 ob/ob mice)	diastolic blood pressure [1]	increase in HDL concentrations (HMG-CoA reductase)
Oc1cc2c(cc1O)C(c1ccccc1)CNCC2 (centres unmarked) [SKF38393]	moderate reductions	19%	neither BC nor SKF individually, reduced	43%	not affected	neither BC nor SKF individually, reduced	3.9 ± 0.07^3,4,5 g/day	671 ± 36^3 uM	218 ± 22^2 mg/dl	50 ± 13 ng/mL	234 ± 22^1 mg/dl	6.0 ± 0.2^1 % BW	3.1 ± 0.1^1 g	7.9 ± 0.1^1 % BW	4.1 ± 0.04^2 g	52 ± 0.7^2 g	ineffective	–	–
CC(C)C[C@H]1C(=O)N2CCC[C@H]2[C@]2(O)O[C@](NC(=O)[C@@H]3C=C4c5cccc6[nH]c(Br)c(c56)C[C@H]4N(C)C3)(C(C)C)C(=O)N12 [bromocriptine, 2-bromo-α-ergocriptine]	moderate reductions	–	neither BC nor SKF individually, reduced	31%	50%	neither BC nor SKF individually, reduced	4.5 ± 0.2^2,5 g/day	818 ± 64^2 uM	262 ± 25^1 mg/dl	30 ± 4^2 ng/ml	405 ± 101 mg/dL	7.0 ± 0.2^1 % BW	3.7 ± 0.1^1 g	7.5 ± 0.1^1 % BW	4.0 ± 0.1^1 g	53 ± 0.7^2 g	ineffective	decrease significantly	–
CC[C@H](C)C(=O)O[C@H]1C[C@@H](C)C=C2C=C[C@H](C)[C@H](CC[C@@H]3C[C@@H](O)CC(=O)O3)[C@H]21 [lovastatin]	–	–	–	–	–	–	–	–	–	–	–	–	–	–	–	–	–	–	5-10%
